Read-outs that look alike come from different tables or passages of the source.
Tests used:
AURKA = target: T1, AURKA (Homo sapiens, UniProt O14965); type: cell-based
T1 construct: endogenous in cells; host or cells: Jurkat cells
T1 sequence (O14965 1-403): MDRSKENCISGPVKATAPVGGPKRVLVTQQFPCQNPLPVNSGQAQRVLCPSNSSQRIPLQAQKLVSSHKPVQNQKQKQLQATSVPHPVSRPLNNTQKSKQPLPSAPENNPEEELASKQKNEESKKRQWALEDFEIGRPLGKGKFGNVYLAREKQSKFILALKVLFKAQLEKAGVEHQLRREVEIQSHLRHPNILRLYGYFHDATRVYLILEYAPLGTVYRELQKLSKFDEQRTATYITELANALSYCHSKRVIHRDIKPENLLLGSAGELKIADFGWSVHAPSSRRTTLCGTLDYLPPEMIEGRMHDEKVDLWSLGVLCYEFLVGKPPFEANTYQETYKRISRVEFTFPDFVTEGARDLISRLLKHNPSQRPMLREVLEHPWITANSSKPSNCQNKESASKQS
Method in brief: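 Jurkat cells seeded at 1×10^6 cells/500 µL and treated with compound; lysates run on SDS-PAGE, blotted to nitrocellulose and probed overnight at 4°C for AURKA. Chemiluminescent or fluorescent band intensity fitted to a curve to give DC50 for protein degradation.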

H82 cells = experiment: cells; type: cell-based; conditions: Homo sapiens
Method in brief: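 H82 cells in RPMI1640 + 10% FBS exposed to compound (0.1% DMSO final) for 6 days at 37 °C, 5% CO2. Viability read by CellTiter-Glo ATP luminescence, normalised to DMSO and medium controls; IC50 from nonlinear regression of the dose–survival curve.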

[1] = 100 nM compound, Jurkat cells, 24 h, Table 2
[2] = 1 µM compound, Jurkat cells, 24 h, Table 2
[3] = NCI-H82, H82 cells, 4000 cells/well, CellTiter-Glo, read-out: IC50 in H82 Cells
[4] = NCI-H82, read-out: IC50 in H82 Cells

SMILES	Percentage of AURKA Degradation Induced by 100 nM Compound in Jurkat Cells (AURKA; [1])	Percentage of AURKA Degradation Induced by 1 µM Compound in Jurkat Cells (AURKA; [2])	IC50 (H82 cells; [3]) [µM]	IC50 (H82 cells; [4]) [µM]	Percentage of AURKA Degradation Induced by 100 nM Compound in Jurkat Cells (AURKA)	Percentage of AURKA Degradation Induced by 1 µM Compound in Jurkat Cells (AURKA)
O=C1CCN(c2ccc(N3CCC(C(=O)N4CCN(c5ccc(Nc6ncc7c(n6)-c6ccc(Cl)cc6C(c6nccs6)=NC7)cc5)CC4)CC3)nc2)C(=O)N1 [Compound A320]	+++ (Degradation > 70%)	+++ (Degradation > 70%)	< 1	–	–	–
N#Cc1ccc2c(c1)C(c1nccs1)=NCc1cnc(Nc3ccc(N4CCN(C5CCN(c6ccc(N7CCC(=O)NC7=O)cn6)CC5)CC4=O)cc3)nc1-2 [Compound A322]	+++ (Degradation > 70%)	+++ (Degradation > 70%)	< 1	–	–	–
N#Cc1nc(N2CCN(C(=O)C3CCN(c4ccc(Nc5ncc6c(n5)-c5ccc(Cl)cc5C(c5c(F)cccc5F)=NC6)cc4)CC3)CC2)ccc1N1CCC(=O)NC1=O [Compound A323]	+++ (Degradation > 70%)	+++ (Degradation > 70%)	< 1	–	–	–
O=C1CCN(c2ccc(N3CCN(C(=O)[C@@H]4CN(c5ccc(Nc6ncc7c(n6)-c6ccc(Cl)cc6C(c6c(F)cccc6F)=NC7)cc5)CCO4)CC3)nc2)C(=O)N1 [Compound A324]	+++ (Degradation > 70%)	+++ (Degradation > 70%)	< 1	–	–	–
O=C1CCN(c2ccc(N3CCN(C(=O)[C@H]4CN(c5ccc(Nc6ncc7c(n6)-c6ccc(Cl)cc6C(c6c(F)cccc6F)=NC7)cc5)CCO4)CC3)nc2)C(=O)N1 [Compound A325]	+++ (Degradation > 70%)	+++ (Degradation > 70%)	< 1	–	–	–
N#Cc1cc(N2CCC(=O)NC2=O)cnc1N1CCN(C(=O)C2CCN(c3ccc(Nc4ncc5c(n4)-c4ccc(Cl)cc4C(c4c(F)cccc4F)=NC5)cc3)CC2)CC1 [Compound A326]	+++ (Degradation > 70%)	+++ (Degradation > 70%)	< 1	–	–	–
O=C1CCN(c2ccc(N3CC4(CC(N5CCN(c6ccc(Nc7ncc8c(n7)-c7ccc(Cl)cc7C(c7c(F)cccc7F)=NC8)cc6)C(=O)C5)CO4)C3)nc2)C(=O)N1 (stereo not drawn) [Compound A329]	+++ (Degradation > 70%)	+++ (Degradation > 70%)	< 1	–	–	–
O=C1CCN(c2ccc(N3CC4(CC(N5CCN(c6ccc(Nc7ncc8c(n7)-c7ccc(Cl)cc7C(c7nccs7)=NC8)cc6)C(=O)C5)CO4)C3)nc2)C(=O)N1 (stereo not drawn) [Compound A330]	+++ (Degradation > 70%)	+++ (Degradation > 70%)	< 1	–	–	–
NC(=O)c1cc(N2CCN(C(=O)C3CCN(c4ccc(Nc5ncc6c(n5)-c5ccc(Cl)cc5C(c5c(F)cccc5F)=NC6)cc4)CC3)CC2)ncc1N1CCC(=O)NC1=O [Compound A334]	+ (Degradation ≤ 30%)	+ (Degradation ≤ 30%)	< 1	–	–	–
O=C1CCN(c2ccc(N3CCC4(CC3)CC(N3CCN(c5ccc(Nc6ncc7c(n6)-c6ccc(Cl)cc6C(c6c(F)cccc6F)=NC7)cc5)C(=O)C3)CO4)nc2)C(=O)N1 (stereo not drawn) [Compound A336]	+++ (Degradation > 70%)	+++ (Degradation > 70%)	< 1	–	–	–
O=C1CCN(c2ccc(N3CCC4(CC3)CC(N3CCN(c5ccc(Nc6ncc7c(n6)-c6ccc(Cl)cc6C(c6nccs6)=NC7)cc5)C(=O)C3)CO4)nc2)C(=O)N1 (stereo not drawn) [Compound A337]	+++ (Degradation > 70%)	+++ (Degradation > 70%)	< 1	–	–	–
O=C1CCN(c2ccc(N3CCC4(CC3)CC(N3CCN(C56CC(Nc7ncc8c(n7)-c7ccc(Cl)cc7C(c7nccs7)=NC8)(C5)C6)C(=O)C3)CO4)nc2)C(=O)N1 (stereo not drawn) [Compound A339]	+++ (Degradation > 70%)	+++ (Degradation > 70%)	< 1	–	–	–
O=C1CCN(c2ccc(N3CCC4(CC3)C[C@@H](N3CCN(c5ccc(Nc6ncc7c(n6)-c6ccc(Cl)cc6C(c6c(F)cccc6F)=NC7)cc5)CC3)CO4)nc2)C(=O)N1 [Compound A341]	+++ (Degradation > 70%)	+++ (Degradation > 70%)	–	< 1	–	–
O=C1CCN(c2ccc(N3CCC4(CC3)C[C@H](N3CCN(c5ccc(Nc6ncc7c(n6)-c6ccc(Cl)cc6C(c6c(F)cccc6F)=NC7)cc5)CC3)CO4)nc2)C(=O)N1 [Compound A342]	+++ (Degradation > 70%)	+++ (Degradation > 70%)	–	< 1	–	–
O=C1CCN(c2ccc(N3CCOC(C(=O)N4CCN(c5ccc(Nc6ncc7c(n6)-c6ccc(Cl)cc6C(c6nccs6)=NC7)cc5)CC4)C3)nc2)C(=O)N1 (stereo not drawn) [Compound A343]	+++ (Degradation > 70%)	+++ (Degradation > 70%)	< 1	–	–	–
O=C1CCN(c2ccc(N3CCC4(CC3)CC(N3CCN(c5ccc(Nc6ncc7c(n6)-c6ccc(Cl)cc6C(c6nccs6)=NC7)cc5)CC3)CO4)nc2)C(=O)N1 (stereo not drawn) [Compound A345]	+++ (Degradation > 70%)	+++ (Degradation > 70%)	< 1	–	–	–
O=C1CCN(c2ccc(N3CCC4(CC3)CN(C3CCN(c5ccc(Nc6ncc7c(n6)-c6ccc(Cl)cc6C(c6c(F)cccc6F)=NC7)cc5)CC3)CCO4)nc2)C(=O)N1 [Compound A346]	–	–	–	< 1	+++ (key: +: Degradation ≤ 30%; ++: 30% < Degradation ≤ 70%; +++: Degradation > 70%)	+++ (key: +: Degradation ≤ 30%; ++: 30% < Degradation ≤ 70%; +++: Degradation > 70%)
O=C1CCN(c2ccc(N3CCC4(CC3)CN(C3CCN(c5cccc(Nc6ncc7c(n6)-c6ccc(Cl)cc6C(c6c(F)cccc6F)=NC7)c5)CC3)CCO4)nc2)C(=O)N1 [Compound A347]	–	–	–	< 1	+++ (key: +: Degradation ≤ 30%; ++: 30% < Degradation ≤ 70%; +++: Degradation > 70%)	+++ (key: +: Degradation ≤ 30%; ++: 30% < Degradation ≤ 70%; +++: Degradation > 70%)
O=C1CCN(c2ccc(N3CCC(N4CCC(c5ccc(Nc6ncc7c(n6)-c6ccc(Cl)cc6C(c6c(F)cccc6F)=NC7)cc5)C(F)(F)C4)CC3)nc2)C(=O)N1 (stereo not drawn) [Compound A350]	+++ (Degradation > 70%)	+++ (Degradation > 70%)	–	< 1	–	–
O=C1CCN(c2ccc(N3CCC4(CC3)CC(N3CCC(c5ccc(Nc6ncc7c(n6)-c6ccc(Cl)cc6C(c6c(F)cccc6F)=NC7)cc5)C(F)(F)C3)CO4)nc2)C(=O)N1 (stereo not drawn) [Compound A351]	+++ (Degradation > 70%)	+++ (Degradation > 70%)	< 1	–	–	–
O=C1CCN(c2ccc(N3CCC4(CC3)CN(C3CN(c5ccc(Nc6ncc7c(n6)-c6ccc(Cl)cc6C(c6c(F)cccc6F)=NC7)cc5)C3)CCO4)nc2)C(=O)N1 [Compound A352]	+++ (Degradation > 70%)	+++ (Degradation > 70%)	–	< 1	–	–
O=C1CCN(c2ccc(N3CCC4(CC3)CN(CC3CN(c5ccc(Nc6ncc7c(n6)-c6ccc(Cl)cc6C(c6c(F)cccc6F)=NC7)cc5)C3)CCO4)nc2)C(=O)N1 [Compound A353]	+++ (Degradation > 70%)	+++ (Degradation > 70%)	< 1	–	–	–
O=C1CCN(c2ccc(N3CCC4(CC3)CCN(C3CCN(c5ccc(Nc6ncc7c(n6)-c6ccc(Cl)cc6C(c6c(F)cccc6F)=NC7)cc5)CC3)CCO4)nc2)C(=O)N1 [Compound A355]	+++ (Degradation > 70%)	+++ (Degradation > 70%)	–	< 1	–	–
O=C1CCN(c2ccc(N3CC4COCC(C3)N4C3CCN(c4ccc(Nc5ncc6c(n5)-c5ccc(Cl)cc5C(c5c(F)cccc5F)=NC6)cc4)CC3)nc2)C(=O)N1 [Compound A356]	+++ (Degradation > 70%)	+++ (Degradation > 70%)	< 1	–	–	–

Reference: patent EP4818168A1, “FUSED RING COMPOUND, PHARMACEUTICAL COMPOSITION THEREOF AND USE THEREOF” (priority 2023, dated 2025)
